Results taken from the supplement of paper PMC10307832.

How the values were obtained:
Test in all cases: relative viability (nuclei count vs DMSO), 5 days (fraction); higher = more cells survive
[1] = compound: NCC(=O)Nc1ccc(-n2nc(C(F)(F)F)cc2-c2ccc3c(ccc4ccccc43)c2)cc1 + O=C(CCCCCCC(=O)Nc1ccccc1)NO [Vorinostat] (partner 1 µM)
Outline: (§1)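 After 5 days of treatment, lung cancer cells in 1536-well plates were fixed and stained in a single step (final 0.05% Triton X-100, 1% formaldehyde, 1 ug/ml Hoechst) and their nuclei counted on 4× images. Treatment had been applied by pin tool the day after seeding as one drug alone or as a fixed anchor-drug dose with five library-drug doses (not always all listed) in √10 steps. Relative viability is the nuclei count of treated wells divided by that of vehicle wells, and values are medians of duplicate plates.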

[2] = compound: C1CSC2=C(C(=O)N1)SC3=C2C=C(C=C3)O [kb NB 142-70] + CC(=O)c1c(C)c2cnc(Nc3ccc(N4CCNCC4)cn3)nc2n(C2CCCC2)c1=O [Palbociclib] (partner 0.5 µM)
Outline: as §1

[3] = compound: NCC(=O)Nc1ccc(-n2nc(C(F)(F)F)cc2-c2ccc3c(ccc4ccccc43)c2)cc1 + CC(C)C[C@H](NC(=O)[C@H](Cc1ccccc1)NC(=O)c1cnccn1)B(O)O [Bortezomib] (partner 0.002 µM)
Outline: as §1

[4] = compound: C1CSC2=C(C(=O)N1)SC3=C2C=C(C=C3)O [kb NB 142-70] + C[C@@H](Oc1cc(-c2cnn(C3CCNCC3)c2)cnc1N)c1c(Cl)ccc(F)c1Cl [Crizotinib] (partner 1 µM)
Outline: as §1

Row | Cell Line | relative viability ([1]; first compound 0.02 µM) | relative viability ([1]; first compound 0.06325 µM) | relative viability ([1]; first compound 0.2 µM) | relative viability ([1]; first compound 0.6325 µM) | relative viability ([1]; first compound 2 µM) | relative viability ([2]; first compound 0.1 µM) | relative viability ([2]; first compound 1 µM) | relative viability ([2]; first compound 3.162 µM) | relative viability ([3]; first compound 0.02 µM) | relative viability ([3]; first compound 0.06325 µM) | relative viability ([3]; first compound 0.2 µM) | relative viability ([3]; first compound 0.6325 µM) | relative viability ([3]; first compound 2 µM) | relative viability ([4]; first compound 0.1 µM) | relative viability ([4]; first compound 1 µM) | relative viability ([4]; first compound 3.162 µM)
1 | COR-L 105 | 0.873 | 0.861 | 0.724 | 0.781 | 1.04 | 0.432 | 0.369 | 0.433 | 0.73 | 0.917 | 0.744 | 0.703 | 1.03 | 0.564 | 0.816 | 0.925
2 | ChaGo-K-1 | 0.667 | 0.794 | 0.725 | 0.725 | 0.76 | 0.872 | 0.803 | 0.838 | 0.979 | 1.02 | 0.81 | 1.04 | 1.12 | 1.1 | 1.16 | 1.13
3 | EKVX | 0.726 | 0.83 | 0.751 | 0.724 | 0.731 | 0.361 | 0.393 | 0.37 | 1.05 | 1.09 | 1.16 | 1.02 | 0.984 | 0.884 | 1.04 | 1.19
4 | EMC-BAC-2 | 0.454 | 0.511 | 0.569 | 0.514 | 0.488 | 0.524 | 0.553 | 0.516 | 1.02 | 1.19 | 1.1 | 1.07 | 1.1 | 0.782 | 0.893 | 0.625
5 | EPLC-272H | 0.354 | 0.538 | 0.491 | 0.573 | 0.501 | 0.324 | 0.329 | 0.28 | 0.806 | 0.873 | 0.868 | 0.943 | 1.14 | 0.851 | 1.03 | 0.428
6 | H3255 | 0.766 | 0.84 | 0.872 | 0.809 | 0.722 | 0.323 | 0.314 | 0.316 | 0.87 | 1.12 | 0.846 | 0.791 | 0.876 | 0.97 | 0.776 | 0.958
7 | HARA | 0.552 | 0.518 | 0.596 | 0.578 | 0.551 | 0.216 | 0.327 | 0.259 | 1.09 | 1.05 | 1.22 | 1.12 | 1.25 | 0.922 | 0.817 | 0.922
8 | HCC-15 | 0.878 | 0.94 | 1.04 | 0.861 | 0.841 | 0.699 | 0.699 | 0.588 | 1.07 | 1.06 | 1.06 | 1.01 | 0.996 | 0.773 | 0.85 | 0.813
9 | HCC-44 | 1.17 | 1.19 | 1.03 | 1.05 | 1.12 | 0.96 | 1 | 1.03 | 0.968 | 0.872 | 0.946 | 0.875 | 0.87 | 0.777 | 0.883 | 0.907
10 | HCC-78 | 0.398 | 0.481 | 0.472 | 0.466 | 0.454 | 0.446 | 0.443 | 0.412 | 0.53 | 0.568 | 0.496 | 0.571 | 0.505 | 0.305 | 0.372 | 0.353
11 | HCC-366 | 0.254 | 0.423 | 0.419 | 0.357 | 0.435 | 0.404 | 0.477 | 0.356 | 1.17 | 1.03 | 1.04 | 1.02 | 1.01 | 0.533 | 0.633 | 0.463
12 | HCC-827 | 0.906 | 0.335 | 0.876 | 0.9 | 0.834 | 0.525 | 0.459 | 0.396 | 1.02 | 1.12 | 1.04 | 1 | 1.15 | 0.918 | 0.947 | 0.921
13 | HOP-62 | 0.536 | 0.534 | 0.668 | 0.501 | 0.7 | 0.496 | 0.473 | 0.441 | 0.828 | 0.859 | 0.728 | 0.339 | 1.02 | 0.869 | 1.02 | 1.03
14 | LC-2-ad | 0.68 | 0.757 | 0.769 | 0.673 | 0.76 | 0.457 | 0.475 | 0.513 | 1.1 | 1.03 | 0.997 | 0.912 | 1.12 | 0.446 | 0.429 | 0.421
15 | LCLC-97TM1 | 0.596 | 0.713 | 0.699 | 0.69 | 0.637 | 0.229 | 0.216 | 0.193 | 0.814 | 0.75 | 0.35 | 0.538 | 0.539 | 0.382 | 0.331 | 0.201
16 | LCLC-103H | 0.674 | 0.831 | 0.818 | 0.77 | 0.862 | 0.47 | 0.475 | 0.504 | 1.03 | 1 | 1.13 | 1.07 | 1.1 | 0.997 | 1.12 | 1.03
17 | LOU-NH91 | 0.895 | 0.977 | 0.917 | 0.872 | 1.01 | 0.494 | 0.536 | 0.417 | 0.485 | 0.523 | 0.485 | 0.511 | 0.484 | 0.75 | 0.732 | 0.644
18 | LU99A | 0.415 | 0.588 | 0.519 | 0.56 | 0.535 | 0.379 | 0.447 | 0.413 | 1.14 | 1.27 | 1.06 | 1.07 | 1.1 | 0.577 | 0.506 | 0.397
19 | LXF-289 | 0.737 | 0.91 | 0.777 | 0.731 | 0.787 | 0.578 | 0.613 | 0.567 | 1.05 | 1.1 | 0.966 | 1.02 | 1.01 | 0.776 | 0.796 | 0.744
20 | NCI-H23 | 0.583 | 0.626 | 0.644 | 0.573 | 0.555 | 0.409 | 0.471 | 0.28 | 0.908 | 1.11 | 1.1 | 1.02 | 1.12 | 0.502 | 0.522 | 0.253
